# According to patent publication US20260325487A1 (BS BIOTECHNA SPOLKA AKCYJNA, priority 2023, published 2026):
# What was measured:
# [1] = system: SW1990; experiment: SRB anti-proliferative assay, SW1990, with CalcuSyn combination index (Example 1); type: cell-based; details: Homo sapiens, SW1990, 72 h, read-out: Zah. (inhibition of proliferation)
# Protocol: (§1) Cells were thawed from ampoules stored in liquid nitrogen and cultured in petri dishes in appropriate culture medium according to Table 2, in a humidified 5% CO2 atmosphere at 37° C. Cells were passaged twice weekly using EDTA-Trypsin solution, pH 8. Counted cells with a viability of at least 90% as assessed with Trypan-Blue solution were used for anti-proliferative assays.
# (§2) Twenty-four hours before the addition of the test compounds/combinations, cells were seeded into 384-well plates at 50 μL/well and a density of 10^3 cells/well, in the appropriate culture medium.
# (§3) Solutions of the compounds were diluted in the test medium-RPMI-1640 and Opti-MEM in a 1:1 ratio, and the medium was supplemented with 2 mM glutamine and 5% fetal bovine serum FBS. After 72 h, colourimetric assessment of cell growth was performed by SRB. […] Unbound dye was removed by washing the plates (4×) in 1% (v/v) acetic acid, and protein-bound dye was extracted with 10 mM unbuffered Tris base and the optical density (A=540 nm) was determined in a BioTek Synergy H4 Hybrid computer microplate reader (BioTek Instruments USA). The entire washing/staining procedure was performed using a BioTek EL406 washing station (BioTek Instruments USA). The raw absorbance results were analysed in Microsoft Excel software using the formula:
# (§4) [formula] • Where: • % Zahlnh-inhibition of proliferation • Am—absorbance of wells without cells (medium) • Ak—absorbance of control wells (cells treated with pure culture medium) • Ap—absorbance of wells treated with compounds
# (§5) Each compound at the indicated concentrations was tested in triplicate in one experiment. Each experiment was repeated three times. Data analysis was supplemented with synergy assessment using CalcuSyn software. […] A CI value below 0.8 indicates synergism, 0.8-1.2 an additive effect, above 1.2 an antagonism.
# [2] = system: SK-MEL3; experiment: SRB anti-proliferative assay, SK-MEL3, with CalcuSyn combination index (Example 1); type: cell-based; details: Homo sapiens, SK-MEL3, 72 h, read-out: Zah. (inhibition of proliferation)
# Protocol: as §1, §2, §3, §4, §5
# [3] = system: BxPC3; experiment: SRB anti-proliferative assay, BxPC3, with CalcuSyn combination index (Example 1); type: cell-based; details: Homo sapiens, BXPC-3, 72 h, read-out: Zah. (inhibition of proliferation)
# Protocol: as §1, §2, §3, §4, §5
# [4] = system: A375; experiment: SRB anti-proliferative assay, A375, with CalcuSyn combination index (Example 1); type: cell-based; details: Homo sapiens, A-375, 72 h, read-out: Zah. (inhibition of proliferation)
# Protocol: as §1, §2, §3, §4, §5
# [5] = system: SKMES-1; experiment: SRB anti-proliferative assay, SKMES-1, molecular combination and nanoparticles, with combination index (Example III); type: cell-based; details: Homo sapiens, SK-MES-1, read-out: Inhibition of cell proliferation (Zah.)
# Protocol: (§6) Cells were thawed from ampoules stored in liquid nitrogen and cultured in petri dishes in the appropriate culture medium according to Table 16, in a humidified 5% CO2 atmosphere at 37° C. Cells were passaged twice weekly using EDTA-Trypsin solution, pH 8, as a separating agent. Counted cells with a viability of at least 90% as assessed with Trypan-Blue solution were used for anti-proliferation assays.
# (§7) Twenty-four hours before the addition of the test compounds/combinations, cells were seeded into 384-well plates at 50 μL/well and a density of 10^3 cells/well, in the appropriate culture medium. […] Solutions of the compounds were diluted in the test medium—RPMI-1640 and Opti-MEM in a 1:1 ratio, and the medium was supplemented with 2 mM glutamine and 5% fetal bovine serum FBS.
# as §3, with “After” for “Solutions of the compounds were diluted in the test medium-RPMI-1640 and Opti-MEM in a 1:1 ratio, and the medium was supplemented with 2 mM glutamine and 5% fetal bovine serum FBS. After”
# as §4, §5
# [6] = system: Hs683; experiment: SRB anti-proliferative assay, Hs683, molecular combination and nanoparticles, with combination index (Example III); type: cell-based; details: Homo sapiens, Hs 683, 72 h, read-out: Zah. (inhibition of proliferation)
# Protocol: as §6, §7
# as §3, with “After” for “Solutions of the compounds were diluted in the test medium-RPMI-1640 and Opti-MEM in a 1:1 ratio, and the medium was supplemented with 2 mM glutamine and 5% fetal bovine serum FBS. After”
# as §4, §5
# [7] = system: 8 cell lines; experiment: SRB anti-proliferative assay, summary over the panel of 8 cell lines (Example III); type: cell-based, human; details: CI analysis not possible
# Protocol: as §6, §7
# Unbound dye was removed by washing the plates (4×) in 1% (v/v) acetic acid, and protein-bound dye was extracted with 10 mM unbuffered Tris base and the optical density (A=540 nm) was determined in a BioTek Synergy H4 Hybrid computer microplate reader (BioTek Instruments USA). […] The raw absorbance results were analysed in Microsoft Excel software using the formula:
# [formula] • Where: • % Zahlnh-inhibition of proliferation • Am—absorbance of wells without cells (medium) • Ak—absorbance of control wells (cells treated with pure culture medium) • Ap—absorbance of wells treated with compounds […]
# [8] = system: NCI-H520; experiment: SRB anti-proliferative assay, NCI-H520, with CalcuSyn combination index (Example 1); type: cell-based; details: Homo sapiens, NCI-H520, 72 h, read-out: Zah. (inhibition of proliferation)
# Protocol: as §1, §2, §3, §4, §5
smiles,measurement,setting,value
"C=CCNC1=C2C[C@@H](C)C[C@H](OC)[C@H](O)[C@@H](C)/C=C(\C)[C@H](OC(N)=O)[C@@H](OC)/C=C\C=C(/C)C(=O)NC(=CC1=O)C2=O [17AAG, 17-AAG (tanespimycin)]",inhibition at 0.0031 µM,[1],-0.2%
same,inhibition at 0.01 µM,[1],5.7%
same,inhibition at 0.0314 µM,[1],40.7%
same,inhibition at 0.1 µM,[1],81.7%
same,inhibition at 0.3155 µM,[1],90.6%
same,inhibition at 1 µM,[1],92.9%
same,inhibition at 3.1546 µM,[1],93.5%
same,inhibition at 10 µM,[1],92.6%
same,inhibition at 0.0031 µM,[2],1.1%
same,inhibition at 0.01 µM,[2],14%
same,inhibition at 0.0314 µM,[2],40.3%
same,inhibition at 0.1 µM,[2],48.5%
same,inhibition at 0.3155 µM,[2],58.1%
same,inhibition at 1 µM,[2],58.5%
same,inhibition at 3.1546 µM,[2],60.7%
same,inhibition at 10 µM,[2],76.6%
same,inhibition at 0.0031 µM,[3],1.7%
same,inhibition at 0.01 µM,[3],2.7%
same,inhibition at 0.0314 µM,[3],24.4%
same,inhibition at 0.1 µM,[3],54.7%
same,inhibition at 0.3155 µM,[3],75.9%
same,inhibition at 1 µM,[3],89.4%
same,inhibition at 3.1546 µM,[3],95.3%
same,inhibition at 10 µM,[3],95.2%
same,inhibition at 0.0031 µM,[4],24.1%
same,inhibition at 0.01 µM,[4],53.3%
same,inhibition at 0.0314 µM,[4],83.2%
same,inhibition at 0.1 µM,[4],89.2%
same,inhibition at 0.3155 µM,[4],91.6%
same,inhibition at 1 µM,[4],96.3%
same,inhibition at 3.1546 µM,[4],97.1%
same,inhibition at 10 µM,[4],97%
same,inhibition at 0.0003163 µM,[5],2.2%
same,inhibition at 0.001 µM,[5],46.7%
same,inhibition at 0.0032 µM,[5],86.7%
same,inhibition at 0.01 µM,[5],90.6%
same,inhibition at 0.0316 µM,[5],85.1%
same,inhibition at 0.1 µM,[5],87.9%
same,inhibition at 0.3163 µM,[5],89.3%
same,inhibition at 1 µM,[5],89.1%
same,inhibition at 0.0003163 µM,[6],8.3%
same,inhibition at 0.001 µM,[6],50.3%
same,inhibition at 0.0032 µM,[6],63%
same,inhibition at 0.01 µM,[6],93.9%
same,inhibition at 0.0316 µM,[6],79.2%
same,inhibition at 0.1 µM,[6],82%
same,inhibition at 0.3163 µM,[6],91%
same,inhibition at 1 µM,[6],94.3%
same,17-AAG activity,[7],low
same,inhibition at 0.0031 µM,[8],5.9%
same,inhibition at 0.01 µM,[8],15.3%
same,inhibition at 0.03 µM,[8],28.3%
same,inhibition at 0.1 µM,[8],48.1%
same,inhibition at 0.3124 µM,[8],56.8%
same,inhibition at 1 µM,[8],59.9%
same,inhibition at 3.1392 µM,[8],63.5%
same,inhibition at 10 µM,[8],65.8%
